This data set in a line: Stability studies: autoclaving, colorimetric determination of N-AC. The data set is classed as physicochemical. As to conditions: 120° C., 20 min.; both in the presence and absence of benzalkonium chloride. The method, then: The formulations underwent autoclaving (120° C., 20 min.): as highlighted in the prior art, N-acetyl-cysteine is degraded by about 30% (both in the presence and absence of benzalkonium chloride). It is, however, possible to carry out sterilisation by filtering through a 0.2 μm membrane, as was performed in the aforesaid examples.
In order to evaluate the stability of N-AC in the vehicle, it is not possible to use the HPLC method or ultraviolet spectrophotometry. The following calorimetric method was thus employed (Raggi M. A., Cavrini V. and Di Pietra A. M., Colorimetric determination of acetylcysteine, penicillamine and mercaptopropionylglycine in pharmaceutical dosage forms, J. Pharm. Sci., 71, 1384-1386 (1982)).
0.163 g of acetylcysteine is dissolved in 500 ml of distilled H2O. By diluting in a proportion of 1:5, the required concentration is obtained.
Increasing volumes of this solution (1-5 ml) are placed in a 25 ml flask and then the following are added in succession:
After 20 min the absorbance is measured at 515 nm by using as reference a control prepared at the same time as the sample.
The procedure described above was also applied to carry out the calibration of N-AC in the presence of DEAE-dextrane. For these samples, the measurement was carried out by using as reference a control containing the polymer and also a control without DEAE-dextrane.

Regarding `CC(=O)N[C@@H](CS)C(=O)O` [N-acetyl-cysteine], the “degradation of N-acetyl-cysteine on autoclaving” value is on record as “about 30%”.
